Experimental data published in patent publication US12214076B2, “Drug delivery vehicles for atherosclerosis nanomedicine” (Northwestern University, priority 2019, dated 2025).
Peptide text beside a SMILES is read from it. * marks the point of attachment. Palmitoyl = CCCCCCCCCCCCCCCC(=O)*

Experiments:
[1] = test system: inducible nitric oxide synthase (iNOS); test: iNOS expression by flow cytometry; format: cell-based, mouse; details: vs. stimulated control
LDLR KO mice [2] = test: Targeting of atherosclerosis by IV injected ApoA1 PA nanofibers (Example 3); format: in vivo, mouse
Protocol: (§1) Mouse model of atherosclerosis: To study atherosclerosis, the LDLR KO mouse was used. LDLR KO mice are fed a high fat “western” diet (Teklad TD.88137) starting at 4 weeks of age. This diet consists of 20% fat, 0.2% cholesterol, and 34% high sucrose. LDLR KO mice fed this diet typically develop severe hypercholesterolemia (>800 mg/dL) and hypertriglyceridemia (>300 mg/dL) after only 2 weeks. By 12 weeks on the high fat diet, atherosclerotic lesions are detected in the aortic root and aortic arch on cryosections stained with Oil Red O (Sigma). Atherosclerosis was quantified in the aortic root as a percentage of the aortic root by taking the atherosclerotic area divided by the total aortic root area. Measurements were made with ImageJ software. All protocols for the animal model and procedures in this manuscript were approved by Northwestern University's Institutional Animal Care and Use Committee.
Injection of PA nanofibers: PA nanofibers were dissolved at 2-4 mg/mL concentration in room temperature phosphate buffered saline (PBS). After 14 weeks on the high fat diet, mice received intravenous injections of PA nanofiber dissolved in PBS (dorsal penile vein in males, retro-orbital injection in females) using a 31 G hypodermic insulin needle on a 0.3 mL syringe under sterile conditions and magnification (NIKON SMZ 645 Zoom Stereomicroscope). Mice were briefly anesthetized for injection with inhaled isoflurane. Mice were monitored and allowed to recover from anesthesia in a heated oxygen chamber.
Dose and concentration study: To determine the optimum concentration for targeting efficacy and safety, LDLR KO mice fed the high fat diet for 14 weeks were injected with PA nanofiber at concentrations of 1 mg/mL, 2 mg/mL, and 4 mg/mL at 8 mg/kg in PBS. Similarly, to determine the optimum dose for targeting efficacy and safety, LDLR KO mice fed the high fat diet for 14 weeks were injected at PA nanofiber doses of 8 mg/kg, 6 mg/kg, 4 mg/kg, 3.3 mg/kg, and 1.7 mg/kg at 2 mg/mL in PBS. Safety, optimum dose, and concentration for targeting was assessed by survival of the animal and fluorescent pixel quantification in the aortic root, liver, lungs, kidneys, and spleen.
(§2) Tissue processing and imaging: Mice were sacrificed and euthanized under inhaled isoflurane anesthesia by diaphragm disruption and exsanguination. Phlebotomy was performed through direct right ventricular cardiac puncture using a 1 mL syringe and 25 G needle. Perfusion was performed through left ventricular cardiac puncture with 10 mL PBS and 10 mL 10% sucrose solution. The lungs, liver, spleen, kidney, aortic root, aortic arch, and descending aorta were harvested and stored in 10% sucrose for 20 minutes. Organs and vessels were then flash-frozen in Optimal Cutting Temperature embedding medium 4583 (Tissue-Tek®) with liquid nitrogen. Frozen specimens were stored at −80° C. and cryosectioned at […]. Confocal microscopy was performed on a Nikon AIR microscope. Two sets of images were acquired with a 10× Plan Fluor NA 0.3 objective. PAs were identified through quantification of the Alexa Fluor® 546 conjugated dye with 561 nm excitation and a 600/50 nm emission filter.
Images were acquired with spectral detection and spectrally unmixed to accurately separate green autofluorescence from the red Alexa Fluor® 546 signal. Brightfield and fluorescent microscopy were performed using a Zeiss Axio Imager.A2 microscope with AxioVision software (release 4.8.2, 06-2010). All confocal and fluorescent sections were mounted with ProGold Diamond mounting media (Sigma). Slides were stained with Oil Red O to image and quantify atherosclerosis under brightfield microscopy. The elastic laminae were identified using the green fluorescent protein (GFP) filter with an exposure time of 3500 ms under 5× magnification. Nanofibers were identified in the aortic root by presence of Alexa Fluor® 546 on the Cy3 filter under 5-10× magnification, and in the internal organs under 20× magnification. […]

LDLR KO mice [3] = test: Atherosclerosis treatment study; format: in vivo, mouse; details: both sexes, twice per week over eight weeks, percent of atherosclerosis in the aortic root
Protocol: as §1
Blood samples were collected at the end of the treatment study for toxicology analysis. Mice were euthanized three days after their 16th treatment.
as §2
Images were acquired with spectral detection and spectrally unmixed to accurately separate green autofluorescence from the red Alexa Fluor® 546 signal. Brightfield and fluorescent microscopy were performed using a Zeiss Axio Imager.A2 microscope with AxioVision software (release 4.8.2, 06-2010). All confocal and fluorescent sections were mounted with ProGold Diamond mounting media (Sigma). Slides were stained with Oil Red O to image and quantify atherosclerosis under brightfield microscopy. The elastic laminae were identified using the green fluorescent protein (GFP) filter with an exposure time of 3500 ms under 5× magnification. Nanofibers were identified in the aortic root by presence of Alexa Fluor® 546 on the Cy3 filter under 5-10× magnification, and in the internal organs under 20× magnification. Fluorescent pixel quantification in the aortic root and within organs was performed with ImageJ software.
Statistics: The effect of treatments and sex on atherosclerosis progression in mice was analyzed using one- or two-factor analysis of variance (ANOVA) followed by a post-hoc student's t-test. The toxicological effects of treatments were also analyzed using two-factor ANOVA and a post-hoc student's t-test. Toxicological effects of treatments on liver proteins AST, ALT, and ALP were further analyzed using ordinal logistic regression models of likelihood ratio tests, followed by a post-hoc Wald test

Row | time post injection when fluorescent pixel analysis was not different from control non-injected mice (LDLR KO mice [2]; aortic root) [days] | Molecule | intracellular iNOS expression of stimulated macrophages [1] | binding duration in areas of atherosclerosis (LDLR KO mice [2]; after injection) | dose dependence of localization at the aortic root (LDLR KO mice [2]; constant concentration 2 mg/mL) | fluorescent pixels in aortic root, 4 mg/mL vs. 2 mg/mL (LDLR KO mice [2]; constant dose 8 mg/kg, 24 hours after injection) | localization in male versus female LDLR KO mice (LDLR KO mice [2]; mouse, in vivo) | localization to areas of atherosclerosis (LDLR KO mice [2]; within 24 hours after injection, confocal, Alexa Fluor 546) | atherosclerosis progression in comparison to the PBS control (LDLR KO mice [3])
1 |  | 10% MMP-Ac2-26 PA: co-assembly of 10 mol % MMP-Ac2-26 PA, 50 mol % E2 filler PA, and 40% ApoA1 PA (VVAAEEGGGPQGIWGQGKAMVSEFLKQAWFIENEEQEYVQTVK) | no effect upon iNOS expression |  |  |  |  |  | 
2 | 10 to 14 | CCCCCCCCCCCCCCCC(=O)N[C@H](C(=O)N[C@H](C(=O)N[C@@H](C)C(=O)N[C@@H](C)C(=O)N[C@@H](CCC(=O)O)C(=O)N[C@@H](CCC(=O)O)C(=O)NCC(=O)N[C@@H](CC(=O)O)C(=O)N[C@@H](Cc1c[nH]c2ccccc12)C(=O)N[C@@H](Cc1ccccc1)C(=O)N[C@@H](CCCCN)C(=O)N[C@@H](C)C(=O)N[C@@H](Cc1ccccc1)C(=O)N[C@@H](Cc1ccc(O)cc1)C(=O)N[C@@H](CC(=O)O)C(=O)N[C@@H](CCCCN)C(=O)N[C@H](C(=O)N[C@@H](C)C(=O)N[C@@H](CCC(=O)O)C(=O)N[C@@H](CCCCN)C(=O)N[C@@H](Cc1ccccc1)C(=O)N[C@@H](CCCCN)C(=O)N[C@@H](CCC(=O)O)C(=O)N[C@@H](C)C(=O)N[C@@H](Cc1ccccc1)C(N)=O)C(C)C)C(C)C)C(C)C [ApoA1 PA] (Palmitoyl-VVAAEEGDWFKAFYDKVAEKFKEAF-NH2) |  | remained localized to areas of atherosclerosis at high concentrations for two days | Doses of 8 mg/kg and 6 mg/kg were superior to 4 mg/kg, which was superior to 1.7 mg/kg | no significant difference | no statistically significant difference in localization between the sexes | localized to areas of atherosclerosis | significantly decreased
